The target of data set [1] is ATP-binding cassette sub-family C member 2 (Rattus norvegicus, UniProt Q63120). The data set can be described thus: TP_TRANSPORTER: inhibition of DNP-SG uptake in bile canalicular membrane vesicles from SD rat. Type of data set: functional, cell membranes, Sprague-Dawley, Bile canalicular membrane vesicle.
Substrate in data set [2]: CC[C@H](C)C(=O)O[C@H]1C[C@H](O)C=C2C=C[C@H](C)[C@H](CC[C@@H](O)C[C@@H](O)CC(=O)O)[C@H]21
The data set can be described thus: TP_TRANSPORTER: uptake in bile canalicular membrane vesicles from SD rat. Type of data set: functional, cell membranes, Sprague-Dawley, Bile canalicular membrane vesicle.

Molecule `CC[C@H](C)C(=O)O[C@H]1C[C@H](O)C=C2C=C[C@H](C)[C@H](CC[C@@H](O)C[C@@H](O)CC(=O)O)[C@H]21` [PRAVASTATIN] yielded an inhibition constant (Ki) in data set [1] of 172 µM.

B1: ATP-binding cassette sub-family C member 2 (Rattus norvegicus) (protein)
chain: MDKFCNSTFWDLSLLESPEADLPLCFEQTVLVWIPLGFLWLLAPWQLYSVYRSRTKRSSITKFYLAKQVFVVFLLILAAIDLSLALTEDTGQATVPPVRYTNPILYLCTWLLVLAVQHSRQWCVRKNSWFLSLFWILSVLCGVFQFQTLIRALLKDSKSNMAYSYLFFVSYGFQIVLLILTAFSGPSDSTQTPSVTASFLSSITFSWYDRTVLKGYKHPLTLEDVWDIDEGFKTRSVTSKFEAAMTKDLQKARQAFQRRLQKSQRKPEATLHGLNKKQSQSQDVLVLEEAKKKSEKTTKDYPKSWLIKSLFKTFHVVILKSFILKLIHDLLVFLNPQLLKLLIGFVKSSNSYVWFGYICAILMFAVTLIQSFCLQSYFQHCFVLGMCVRTTVMSSIYKKALTLSNLARKQYTIGETVNLMSVDSQKLMDATNYMQLVWSSVIQITLSIFFLWRELGPSILAGVGVMVLLIPVNGVLATKIRNIQVQNMKNKDKRLKIMNEILSGIKILKYFAWEPSFQEQVQGIRKKELKNLLRFGQLQSLLIFILQITPILVSVVTFSVYVLVDSANVLNAEKAFTSITLFNILRFPLSMLPMVTSSILQASVSVDRLERYLGGDDLDTSAIRRVSNFDKAVKFSEASFTWDPDLEATIQDVNLDIKPGQLVAVVGTVGSGKSSLVSAMLGEMENVHGHITIQGSTAYVPQQSWIQNGTIKDNILFGSEYNEKKYQQVLKACALLPDLEILPGGDMAEIGEKGINLSGGQKQRVSLARAAYQDADIYILDDPLSAVDAHVGKHIFNKVVGPNGLLAGKTRIFVTHGIHFLPQVDEIVVLGKGTILEKGSYRDLLDKKGVFARNWKTFMKHSGPEGEATVNNDSEAEDDDDGLIPTMEEIPEDAASLAMRRENSLRRTLSRSSRSSSRRGKSLKNSLKIKNVNVLKEKEKEVEGQKLIKKEFVETGKVKFSIYLKYLQAVGWWSILFIILFYGLNNVAFIGSNLWLSAWTSDSDNLNGTNNSSSHRDMRIGVFGALGLAQGICLLISTLWSIYACRNASKALHGQLLTNILRAPMRFFDTTPTGRIVNRFSGDISTVDDLLPQTLRSWMMCFFGIAGTLVMICMATPVFAIIIIPLSILYISVQVFYVATSRQLRRLDSVTKSPIYSHFSETVTGLPIIRAFEHQQRFLAWNEKQIDINQKCVFSWITSNRWLAIRLELVGNLVVFCSALLLVIYRKTLTGDVVGFVLSNALNITQTLNWLVRMTSEAETNIVAVERISEYINVENEAPWVTDKRPPADWPRHGEIQFNNYQVRYRPELDLVLKGITCNIKSGEKVGVVGRTGAGKSSLTNCLFRILESAGGQIIIDGIDVASIGLHDLRERLTIIPQDPILFSGSLRMNLDPFNKYSDEEVWRALELAHLRSFVSGLQLGLLSEVTEGGDNLSIGQRQLLCLGRAVLRKSKILVLDEATAAVDLETDSLIQTTIRKEFSQCTVITIAHRLHTIMDSDKIMVLDNGKIVEYGSPEELLSNRGSFYLMAKEAGIENVNHTEL
B1: the Km in data set [2] was 223 µM.

A word on the Ki: it is a measure of affinity in units of concentration, obtained from inhibition or displacement. A lower Ki goes with tighter binding. For orientation: Km means the substrate concentration at which the rate is half of its maximum.

The record behind these values is ChEMBL document CHEMBL2074202, “Biliary excretion of pravastatin in rats: contribution of the excretion pathway mediated by canalicular multispecific organic anion transporter” (Drug Metab Dispos, 1997).
